Tested on: Leptosphaeria nodorum (LEPTNO)
Experiment: In vitro fungitoxicity (growth inhibition) in copper-minus and copper-plus liquid medium
Type: cell-based
Details: CuCl2 10 μM, no test compound, copper-plus vs copper-minus medium, across experiments
Procedure: In vitro fungitoxicity assays against Leptosphaeria nodorum (LEPTNO) were conducted using the liquid growth medium described by Coursen and Sisler (American Journal of Botany 1960, 47, 541-549) except that copper micronutrient, normally included as CuSO4, was omitted. The medium, termed “copper-minus”, was prepared by dissolving 10 g glucose, 1.5 g K2HPO4, 2 g KH2PO4 and 1 g (NH4)2SO4 in 1 liter of deionized water and treating the solution with 0.5 g Chelex 100 resin (Bio-Rad Analytical grade, 50-100 mesh, sodium form, cat#142-2822) by stirring at room temperature for 1 h. MgSO4.7H2O (0.5 g) was added, and stirring was continued for a further hour. Trace elements (minus CuSO4), and vitamins described by Coursen and Sisler were added from concentrated stock solutions and the entire medium was sterilized by filtration. […]
LEPTNO was grown on potato dextrose agar in 9 cm diameter petri dishes for 7 days. […] The spores were resuspended in copper-minus medium, and the suspension adjusted to 2×10^5 spores per mL Microtiter plates were inoculated with 100 μL of this spore suspension and the plates incubated at 25° C. for 72 h before assessing fungal growth by measuring light scattering in a NepheloStar plate reader. Growth inhibition was determined by comparing growth in the presence of test compound with growth in control wells lacking test compound. […]

Structure (SMILES): O.O.[Cl][Cu][Cl] [CuCl2, CuCl2.2H2O]
- LEPTNO % Inhn. attributed to copper chloride alone: 7.1 ± 6.0%
